The record followed here is ChEMBL document CHEMBL3507680, “University of Dundee, Gates Library screen for HepG2 cell viability”.

Molecules are shown by their SMILES.

A short description of the data set: Human HepG2 cell viability assay in 384 well format. The format is toxicity, cell-based. To be noted: HepG2 cells, read-out: Inhibition. Set-up: dose 125 nL, time 70.5 hour; concentration not given beside the values.
`CCOCCC(=O)N1CCc2cccc(S(=O)(=O)N3CCOCC3)c2C1`: the cytotoxicity at 70.5 h was -9.19%.

On to `O=S1(=O)C[C@@H]2[C@H](C1)N(Cc1ccoc1)CCN2Cc1ccncc1`, for which the cytotoxicity at 70.5 h is -5.67%.

For the compound `O=c1cc(CN2CCCC2)nc2n1CCCN(CC1CC1)C2`, the cytotoxicity at 70.5 h amounted to 20.8%.

On to `CNS(=O)(=O)c1ccc(CNC(=O)N(C)CC(C)C)cc1`, for which the cytotoxicity at 70.5 h is -94.7%.

As to `COCCCNC(=O)c1ccccc1-n1cc(CN(C)C)cn1`, the cytotoxicity at 70.5 h is -7.43%.

For the compound `Cc1noc(C2CCC3(CCN(C(=O)c4ccncn4)CC3)O2)n1` (stereo unspecified), the cytotoxicity at 70.5 h amounted to 3.42%.

Regarding `N#Cc1cccc(NC(=O)N[C@H](CO)c2ccccc2)c1`, the cytotoxicity at 70.5 h is -10.8%.

`CC(=O)N1CCCC(c2ncncc2-c2ccncc2)C1` (stereo unspecified): the cytotoxicity at 70.5 h was -7.71%.

`Cc1ccc(OCC(C)NS(=O)(=O)N(C)C)cc1` (stereo unspecified): the cytotoxicity at 70.5 h was -5.84%.

In the case of `O=C(c1ccoc1)N1CCCn2cnc(COCC3CC3)c2C1`, the cytotoxicity at 70.5 h was -10.8%.

Consider `Clc1ccc(-c2c[nH]c([C@@H]3COCCN3)n2)cc1`, for which the cytotoxicity at 70.5 h is -0.826%.

On to `CNC(=O)c1cn[nH]c1C1CCCN1C(=O)c1cccnc1` (stereo unspecified), for which the cytotoxicity at 70.5 h is -4.17%.

For `CC(C)COC(C)C(=O)NCc1ccc(F)cc1` (stereo unspecified), the cytotoxicity at 70.5 h was -19.1%.

Turning to `O=C(NC1CC1)c1cn(C2CCN(c3cc(C4CC4)ncn3)CC2)nn1`, the cytotoxicity at 70.5 h is 30%.

For the compound `CCn1nc(C)c2nnn(CC(=O)Nc3cccc(Cl)c3)c(=O)c21`, the cytotoxicity at 70.5 h was -5.39%.

Consider `Cc1cc2ccncc2n1CC1(O)CCN(C(=O)c2ccncc2)CC1`, for which the cytotoxicity at 70.5 h was -1.76%.

As to `COc1ccccc1N1CCC(N2CCOC(C(F)(F)F)C2)CC1` (stereo unspecified), the cytotoxicity at 70.5 h was -3.26%.

As for `c1cncc(COCC2CC[C@H]3[C@H](CCN3CC3CCOCC3)O2)c1` (stereo partly specified), the cytotoxicity at 70.5 h is 24.3%.

As for `CNc1cc(CCNC(=O)CC(C)C)nc(-c2ccccn2)n1`, the cytotoxicity at 70.5 h was -7.32%.

As for `CN1CCOC(CNCc2coc(-c3cccc(F)c3)n2)C1` (stereo unspecified), the cytotoxicity at 70.5 h is 36.2%.

For `CC(C)c1nc(/C=C/c2cnn(-c3ccc(Cl)cc3)c2)ncc1C(=O)O`, the cytotoxicity at 70.5 h came to 22.7%.

On to `Cc1c(C(=O)N2CCCC(n3cccn3)C2)nnn1-c1ccccc1` (stereo unspecified), for which the cytotoxicity at 70.5 h was -2.31%.

For `COCc1cccc(NC(C)C(=O)N(C)Cc2ccccc2)c1` (stereo unspecified), the cytotoxicity at 70.5 h came to 10.7%.

Turning to `Cc1csc(CNC(=O)NC2CCCc3c2cnn3CCO)n1` (stereo unspecified), the cytotoxicity at 70.5 h is -9.89%.

For `Nc1nnnn1NCc1cccc2ccccc12`, the cytotoxicity at 70.5 h was -11.8%.

`COc1ccc(OC)c(S(=O)(=O)NCC2(OC)CCSC2)c1` (stereo unspecified): the cytotoxicity at 70.5 h is -7.48%.

As to `CC(=O)NC1CCCN(Cc2ccc(-n3ccnc3)cc2)C1` (stereo unspecified), the cytotoxicity at 70.5 h was -4.74%.

In the case of `OCCC1CN(c2ncnc3[nH]cnc23)CCN1Cc1ccccc1F` (stereo unspecified), the cytotoxicity at 70.5 h stood at 5.32%.

In the case of `CCC(C(=O)N(C)Cc1cc(C2CC2)[nH]n1)n1cccn1` (stereo unspecified), the cytotoxicity at 70.5 h is -5.95%.

On to `O=C(CCc1ccccn1)NCC(O)c1ccc(Cl)cc1Cl` (stereo unspecified), for which the cytotoxicity at 70.5 h was -1.56%.

In the case of `CC(C)C(=O)NCCCNC(=O)Nc1cc(-c2ccccc2)ns1`, the cytotoxicity at 70.5 h was -12.9%.

Take `CC(=O)NC1(C(=O)N2CCC(Nc3cccnn3)CC2)CCCCC1`: the cytotoxicity at 70.5 h is 3.94%.

For `COc1ccc(C(=O)O)cc1-c1cccc2c1CCNC2`, the cytotoxicity at 70.5 h is -11.6%.

In the case of `CCOc1c(F)cccc1C(=O)N(C)CCn1cccn1`, the cytotoxicity at 70.5 h amounted to 7.19%.

As for `Cc1nsc(C(=O)NCCc2cccs2)n1`, the cytotoxicity at 70.5 h was -5.79%.

Regarding `O=c1n(CCNc2cccc3ccccc23)nc2ccccn12`, the cytotoxicity at 70.5 h came to 4.9%.

In the case of `CC(C(=O)NCc1ccc(N2CCCC2)nc1)S(C)(=O)=O` (stereo unspecified), the cytotoxicity at 70.5 h stood at 15.7%.

`NC(=O)C1CCN(C(=O)NCc2ccccc2-n2cccn2)CC1`: the cytotoxicity at 70.5 h was -4.82%.

Take `Fc1cccnc1N1CCC(NCc2cccc3cn[nH]c23)C1` (stereo unspecified): the cytotoxicity at 70.5 h was 3.51%.

Consider `COc1cccc(C2CCCN2Cc2nnnn2C2CC2)c1` (stereo unspecified), for which the cytotoxicity at 70.5 h was -3.76%.

Turning to `O=C(NCc1ccccc1F)N1CCC(C2OCCO2)CC1`, the cytotoxicity at 70.5 h is -7.09%.

`CC(C)OCCCNC(=O)CSc1nnc(OC(C)C)s1`: the cytotoxicity at 70.5 h was -4.19%.

Regarding `CC(CNC(=O)c1ccc(C#N)cc1)N1CCc2ccccc21` (stereo unspecified), the cytotoxicity at 70.5 h was found to be 0.334%.

For `O=C(Nc1cccnc1)[C@@H]1C[C@H]2OCC[C@H]2N(Cc2ccsc2)C1`, the cytotoxicity at 70.5 h turned out to be 0.225%.

For the compound `CCn1cnnc1C1CCN(C(=O)c2cccc3c2ccn3C)CC1`, the cytotoxicity at 70.5 h came out at 6.06%.

In the case of `Cc1nc(CN2CCCC(c3nccs3)C2)cs1` (stereo unspecified), the cytotoxicity at 70.5 h is -0.693%.

`Cc1cc(C(F)(F)F)cc(=O)n1CCn1cc(Cl)cn1`: the cytotoxicity at 70.5 h is -11.3%.

Regarding `Cn1cc(C(=O)NCC2CCN(C(=O)NC3CCCCC3)CC2)cn1`, the cytotoxicity at 70.5 h was -15.9%.

Consider `CCn1nnnc1-c1cccc(NC(N)=O)c1`, for which the cytotoxicity at 70.5 h is -5.79%.

As for `Cc1cc(=O)n(CC(=O)NCC2CCCO2)c(-c2cccc(Cl)c2)n1` (stereo unspecified), the cytotoxicity at 70.5 h was -2.89%.

Consider `O=C(CCc1ccc(F)cc1)NCc1ccnc(NC2CC2)c1`, for which the cytotoxicity at 70.5 h was -2.2%.

For the compound `COc1ccccc1CN(C)C(=O)NCc1c(C)cc(C)[nH]c1=O`, the cytotoxicity at 70.5 h is -0.543%.

As to `CC(C)CC(=O)N1CCN(Cc2cc(-c3ccncc3)nn2C)CC1`, the cytotoxicity at 70.5 h was -3.33%.

Take `Nc1nc(O)cc(N2CCC(c3cc(Cc4ccccc4)n[nH]3)CC2)n1`: the cytotoxicity at 70.5 h is -3.99%.

As to `CN1CCOCC12CCN(Cc1ccoc1)CC2`, the cytotoxicity at 70.5 h was -13.2%.

Regarding `CN(Cc1cc(Br)cn1C)C(=O)c1cccnc1`, the cytotoxicity at 70.5 h is -8.21%.

As for `CN(CC(O)CO)C(=O)c1coc(COc2cccc(F)c2)n1` (stereo unspecified), the cytotoxicity at 70.5 h was 8.53%.

For `CN(Cc1cnn(C)c1)C(=O)c1ccc(=O)n(Cc2ccccc2)n1`, the cytotoxicity at 70.5 h worked out at 27.5%.

With `Cc1cccnc1NC(=O)N(CCO)Cc1ccsc1`, the cytotoxicity at 70.5 h was -4.42%.

`CC(NC(=O)N1CCC(n2cncn2)CC1)c1ccc(F)cc1` (stereo unspecified): the cytotoxicity at 70.5 h was -6.99%.

Turning to `CC(C)C(=O)N1CCC(n2nc(-c3ccco3)ccc2=O)CC1`, the cytotoxicity at 70.5 h worked out at 15.9%.

For the compound `CCS(=O)(=O)N1CCN(C(=O)C(C)C)CC2(CC(=O)N(C)C2)C1` (stereo unspecified), the cytotoxicity at 70.5 h was -5.47%.

As to `CN(C)CCNC(=O)C1Cc2nc(-c3ccccc3)sc2N1CC1CC1` (stereo unspecified), the cytotoxicity at 70.5 h was -11%.

For the compound `CCN1CCC2(CCN(Cc3nccs3)CC2)C1=O`, the cytotoxicity at 70.5 h was found to be 0.565%.

Consider `COc1ccccc1CNC(=O)C(C)n1cc2c(n1)c(C)nn2C` (stereo unspecified), for which the cytotoxicity at 70.5 h was -6.09%.

In the case of `Cc1cc(CNCC2CCCN(C(=O)OC(C)(C)C)C2)no1` (stereo unspecified), the cytotoxicity at 70.5 h was -6.15%.

Take `Cc1nonc1C1CCCN1C(=O)c1cc2n(n1)CCCN(C(C)C)C2` (stereo unspecified): the cytotoxicity at 70.5 h is -6.2%.

As for `CN(C)C1COC2(CCN(C(=O)c3cccnc3)CC2)C1` (stereo unspecified), the cytotoxicity at 70.5 h is -6.03%.

Consider `CC[C@H]1CN(C(=O)c2cccnc2)CC[C@H]1CC(=O)NCCOC`, for which the cytotoxicity at 70.5 h was -1.87%.

On to `CC(C)c1nnc2n1CC(CNC/C=C/c1ccccc1)CC2` (stereo unspecified), for which the cytotoxicity at 70.5 h was -7.41%.

Consider `CC1CCN(C(=O)NCCc2cc(F)ccc2F)C1` (stereo unspecified), for which the cytotoxicity at 70.5 h is -11.9%.

Turning to `CNC(=O)CCCNCc1c(C(C)C)nn(C)c1N(C)C`, the cytotoxicity at 70.5 h amounted to 14.4%.

`Cn1ccc2cc(C(=O)N3CCOCC3)ccc21`: the cytotoxicity at 70.5 h was -9.22%.

Regarding `CC(C)=CCN1C[C@@H](C(=O)O)C[C@H](C(=O)Nc2ccc(C)nc2)C1`, the cytotoxicity at 70.5 h is -8.07%.

Regarding `O=C(CC1C=CCC1)Nc1ncn(CC(=O)N2CCCCCC2)n1` (stereo unspecified), the cytotoxicity at 70.5 h is -13.4%.

Turning to `COCCNC(=O)c1ccc(NCc2csc(C)n2)cc1Cl`, the cytotoxicity at 70.5 h was -2.04%.

Take `CCCc1nc2c(c(C)c(C)n2CCN(C)C)c(N)c1CC`: the cytotoxicity at 70.5 h came out at 3.64%.

With `CCn1nccc1CNC(=O)NC1CCCCC1`, the cytotoxicity at 70.5 h was 6.27%.

`Cc1noc(C)c1C(=O)N1CCC(n2cccn2)CC1`: the cytotoxicity at 70.5 h is -3.66%.

Consider `NC(CC1CCCC1)c1ccccc1` (stereo unspecified), for which the cytotoxicity at 70.5 h is 0.203%.

Take `O=C(c1c[nH]nn1)N1CCCC1C1CCCCC1` (stereo unspecified): the cytotoxicity at 70.5 h is -8.52%.

`COc1ccc(C2CCN(CCCC#N)CC2)cc1`: the cytotoxicity at 70.5 h was determined as 27.7%.

As to `Cc1ccc(CN2CC[C@H]3OCC[C@@H](C(=O)NCC4CC4)[C@@H]3C2)o1`, the cytotoxicity at 70.5 h is -5.45%.

For `CN(C(=O)c1cccc(OCC(F)F)n1)c1ccc2c(c1)CCO2`, the cytotoxicity at 70.5 h was found to be 21.4%.

With `O=C(CC1CCCCC1)N1CCC(c2ncc3c(n2)CCNC3)CC1`, the cytotoxicity at 70.5 h is -7.09%.

`CCC(=O)Nc1ccc2c(c1)C1(CCOCC1)CN2CCF`: the cytotoxicity at 70.5 h was 16.7%.

For the compound `Cc1nccn1-c1cc(CNC(=O)C2CCC(=O)NC2)ccn1` (stereo unspecified), the cytotoxicity at 70.5 h was found to be 12.3%.

Turning to `Cc1cnn(C2CCCN(C(=O)c3ccc(-n4cccn4)nc3)C2)c1` (stereo unspecified), the cytotoxicity at 70.5 h is -11.3%.

As to `Cn1nc(CNC(=O)c2nc3ccccc3s2)c2c1CCOC2`, the cytotoxicity at 70.5 h was 8.85%.

With `Cc1noc(C)c1CN1CC[C@H]2C[C@@H](c3nccs3)O[C@@H]2C1`, the cytotoxicity at 70.5 h was -14.7%.

Regarding `Cc1cccc(NS(=O)(=O)c2cc3c(c(C(=O)O)c2)OCCO3)c1`, the cytotoxicity at 70.5 h was -7.67%.

Take `Cc1cccc(CNCC2COC3(CCCCC3)O2)c1C` (stereo unspecified): the cytotoxicity at 70.5 h worked out at 34.7%.

As to `CCC(=O)Nc1nnc(CCOc2ccccc2OC)s1`, the cytotoxicity at 70.5 h was -11.7%.

With `O=C(NC1CCCN(c2ccccc2Cl)C1)c1c[nH]nn1` (stereo unspecified), the cytotoxicity at 70.5 h is -10.1%.

Take `COc1ccccc1CC(C)(C)C(=O)NCC(=O)Nc1cccnc1`: the cytotoxicity at 70.5 h turned out to be 3.9%.

Turning to `CN(Cc1ccsc1)C(=O)Cn1c(CS(C)(=O)=O)nc2ccccc21`, the cytotoxicity at 70.5 h is -1.3%.

As to `CCOc1ccc(C(=O)N2Cc3cnc(CC)nc3C2)o1`, the cytotoxicity at 70.5 h is -3.48%.

Regarding `COc1ccccc1CNc1c(N2CCN(C(C)=O)CC2)c(=O)c1=O`, the cytotoxicity at 70.5 h is -10.2%.

Regarding `Cc1nc(C)n(CC2CCCN(Cc3cccc(C(N)=O)c3)C2)n1` (stereo unspecified), the cytotoxicity at 70.5 h was -1.85%.

Turning to `CN(Cc1cccc(C(F)(F)F)c1)Cc1nc(-c2cnccn2)no1`, the cytotoxicity at 70.5 h was -8.53%.

In the case of `OCCN1CCC(Cc2nccs2)CC1`, the cytotoxicity at 70.5 h came to 1.19%.
